Legend:
Assay in all cases: DSF 100 kinase selectivity screen;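 also: compound tested at 20 µM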
Assay type in all cases: binding
[1] = molecular target: T1, ~100 representative kinases (Homo sapiens, UniProt Q8TF76); conditions: protein GSG2; average of three replicates
T1 construct: Recombinant protein kinase domains with a concentration of 2 μM
T1 sequence (Q8TF76 1-798): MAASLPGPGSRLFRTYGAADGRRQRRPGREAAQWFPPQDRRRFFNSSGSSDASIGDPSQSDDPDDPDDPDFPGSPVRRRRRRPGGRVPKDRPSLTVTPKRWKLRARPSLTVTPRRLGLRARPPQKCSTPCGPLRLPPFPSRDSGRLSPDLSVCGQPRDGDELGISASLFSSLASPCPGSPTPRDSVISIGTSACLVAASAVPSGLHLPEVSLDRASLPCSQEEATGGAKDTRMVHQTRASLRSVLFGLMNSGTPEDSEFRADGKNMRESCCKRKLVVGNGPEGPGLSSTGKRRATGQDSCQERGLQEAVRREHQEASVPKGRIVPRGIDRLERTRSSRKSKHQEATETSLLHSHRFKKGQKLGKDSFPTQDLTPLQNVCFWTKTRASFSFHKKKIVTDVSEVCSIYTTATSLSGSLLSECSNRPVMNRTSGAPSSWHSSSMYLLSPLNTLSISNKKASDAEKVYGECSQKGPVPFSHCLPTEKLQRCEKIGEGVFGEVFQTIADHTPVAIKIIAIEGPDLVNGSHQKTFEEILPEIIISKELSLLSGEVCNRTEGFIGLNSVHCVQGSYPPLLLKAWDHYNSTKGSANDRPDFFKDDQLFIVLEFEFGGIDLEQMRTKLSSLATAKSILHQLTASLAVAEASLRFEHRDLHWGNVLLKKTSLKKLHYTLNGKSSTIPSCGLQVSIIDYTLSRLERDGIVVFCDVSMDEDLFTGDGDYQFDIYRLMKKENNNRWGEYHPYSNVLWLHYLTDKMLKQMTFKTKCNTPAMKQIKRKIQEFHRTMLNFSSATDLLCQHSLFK
Protocol: (§1) Recombinant protein kinase domains with a concentration of 2 μM were mixed with a 20 μM compound solution in dimethyl sulfoxide (DMSO), 20 mM Hepes (pH 7.5), and 500 mM NaCl. SYPRO Orange (5000×, Invitrogen) was added as a fluorescence probe (1μl/ml). Subsequently, temperature-dependent protein unfolding profiles were measured using the QuantStudio 5 realtime PCR machine (Thermo Fisher Scientific, Waltham, MA, USA). […] The temperature was raised with a step rate of 3°C/min. […] Differences in melting temperature are given as ΔTm values in degrees Celsius. […]

[2] = molecular target: T2, ~100 representative kinases (Homo sapiens, UniProt Q99986); conditions: Protein VRK1; DSF; average of three replicates
T2 construct: Recombinant protein kinase domains with a concentration of 2 μM
T2 sequence (Q99986 1-396): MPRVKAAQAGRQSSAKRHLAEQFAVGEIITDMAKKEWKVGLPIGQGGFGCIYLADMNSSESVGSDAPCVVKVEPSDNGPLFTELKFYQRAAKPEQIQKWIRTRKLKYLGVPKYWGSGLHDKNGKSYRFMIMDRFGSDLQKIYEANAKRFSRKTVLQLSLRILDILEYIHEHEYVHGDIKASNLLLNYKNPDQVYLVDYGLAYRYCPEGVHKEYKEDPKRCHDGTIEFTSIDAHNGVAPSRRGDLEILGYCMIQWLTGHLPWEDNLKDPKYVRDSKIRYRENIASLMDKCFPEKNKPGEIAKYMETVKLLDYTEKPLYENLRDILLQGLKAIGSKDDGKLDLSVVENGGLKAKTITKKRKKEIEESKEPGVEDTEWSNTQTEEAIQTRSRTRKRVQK
Protocol: as §1

[3] = molecular target: T3, ~100 representative kinases (Homo sapiens, UniProt P24941); conditions: Protein CDK2; average of three replicates
T3 construct: Recombinant protein kinase domains with a concentration of 2 μM
Protocol: as §1

[4] = molecular target: T4, ~100 representative kinases (Homo sapiens, UniProt Q00536); conditions: protein PCTK1; average of three replicates
T4 construct: Recombinant protein kinase domains with a concentration of 2 μM
Protocol: as §1

[5] = molecular target: T5, ~100 representative kinases (Homo sapiens, UniProt P51813); conditions: Protein BMX; average of three replicates
T5 construct: Recombinant protein kinase domains with a concentration of 2 μM
T5 sequence (P51813 1-675): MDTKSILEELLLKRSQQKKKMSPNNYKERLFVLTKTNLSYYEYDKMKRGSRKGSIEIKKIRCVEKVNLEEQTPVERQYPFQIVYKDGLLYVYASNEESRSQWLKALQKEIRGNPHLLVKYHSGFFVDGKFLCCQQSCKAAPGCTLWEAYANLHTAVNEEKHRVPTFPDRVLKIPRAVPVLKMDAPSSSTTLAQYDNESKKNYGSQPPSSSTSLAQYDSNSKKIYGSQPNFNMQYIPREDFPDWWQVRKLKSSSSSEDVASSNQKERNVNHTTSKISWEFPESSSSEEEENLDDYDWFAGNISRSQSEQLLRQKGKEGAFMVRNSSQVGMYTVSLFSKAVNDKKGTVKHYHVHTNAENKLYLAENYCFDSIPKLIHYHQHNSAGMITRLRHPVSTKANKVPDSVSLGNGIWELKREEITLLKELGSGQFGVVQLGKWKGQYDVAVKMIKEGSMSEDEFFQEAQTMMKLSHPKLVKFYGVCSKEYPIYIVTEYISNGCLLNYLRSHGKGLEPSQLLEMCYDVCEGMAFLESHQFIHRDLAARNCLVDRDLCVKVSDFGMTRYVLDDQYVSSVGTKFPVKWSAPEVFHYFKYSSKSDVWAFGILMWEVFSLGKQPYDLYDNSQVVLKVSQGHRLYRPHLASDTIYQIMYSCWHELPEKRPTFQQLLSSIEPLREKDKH
Protocol: as §1

[6] = molecular target: T6, ~100 representative kinases (Homo sapiens, UniProt Q9UEW8); conditions: Protein STK39; DSF; average of three replicates
T6 construct: Recombinant protein kinase domains with a concentration of 2 μM
Protocol: as §1

[7] = molecular target: T7, ~100 representative kinases (Homo sapiens, UniProt P49761); conditions: Protein CLK3; average of three replicates
T7 construct: Recombinant protein kinase domains with a concentration of 2 μM
Protocol: as §1

T7 sequence (P49761 whole entry, the tested form may be a part): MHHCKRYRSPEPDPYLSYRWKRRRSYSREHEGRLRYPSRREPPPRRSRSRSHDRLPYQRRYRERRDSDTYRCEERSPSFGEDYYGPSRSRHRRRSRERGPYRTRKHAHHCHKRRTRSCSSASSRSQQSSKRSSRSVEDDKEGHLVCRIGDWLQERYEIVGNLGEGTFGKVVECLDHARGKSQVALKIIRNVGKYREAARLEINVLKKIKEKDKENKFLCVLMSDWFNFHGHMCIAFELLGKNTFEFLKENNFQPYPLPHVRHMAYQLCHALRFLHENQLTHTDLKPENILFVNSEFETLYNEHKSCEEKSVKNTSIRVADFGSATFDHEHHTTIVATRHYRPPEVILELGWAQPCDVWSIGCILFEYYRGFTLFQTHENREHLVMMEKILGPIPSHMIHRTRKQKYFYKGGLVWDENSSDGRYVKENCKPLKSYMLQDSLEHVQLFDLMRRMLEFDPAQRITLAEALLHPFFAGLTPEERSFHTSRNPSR
T4 sequence (Q00536 whole entry, the tested form may be a part): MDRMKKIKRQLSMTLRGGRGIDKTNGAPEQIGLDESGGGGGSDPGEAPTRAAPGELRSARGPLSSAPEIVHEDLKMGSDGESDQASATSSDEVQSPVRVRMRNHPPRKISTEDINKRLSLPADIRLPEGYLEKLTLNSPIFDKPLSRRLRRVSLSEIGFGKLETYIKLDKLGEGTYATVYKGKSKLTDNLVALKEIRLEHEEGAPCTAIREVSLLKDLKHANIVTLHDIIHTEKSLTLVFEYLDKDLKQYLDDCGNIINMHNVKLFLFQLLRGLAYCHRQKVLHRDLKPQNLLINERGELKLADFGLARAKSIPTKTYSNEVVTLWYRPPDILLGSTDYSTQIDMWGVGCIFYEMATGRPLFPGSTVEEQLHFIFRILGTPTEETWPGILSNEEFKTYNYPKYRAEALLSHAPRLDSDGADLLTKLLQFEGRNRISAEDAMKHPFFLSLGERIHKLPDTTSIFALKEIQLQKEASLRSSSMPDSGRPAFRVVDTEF

`C[C@@H]1CN(c2cc(-c3n[nH]c4ccc(OC5(C)CC5)cc34)ncn2)C[C@H](C)O1` [MLi2] showed a dTm [1] of 0.08 K, a dTm [2] of 0.11 K and a dTm [3] of -0.0213 K. For the same compound, the dTm [4] was -0.14 K, the dTm [5] was -2.53 K and the dTm [6] was 0.27 K. The dTm [7] was 3.51 K.

`O=C(Nc1cccc(-c2c[nH]c3ncnc(N4CCOCC4)c23)c1)C1(C(=O)Nc2ccc(F)c(F)c2)CC1` [Compound 17] gave a dTm [1] of -3.87 K, a dTm [2] of 1.14 K and a dTm [3] of 5.91 K. For the same compound, the dTm [4] was 5.61 K, the dTm [5] was 0.61 K and the dTm [6] was 1.80 K. The dTm [7] was 3.44 K.

Work on `CC(C)(C)c1cc(NC(=O)Nc2cccc(-c3c[nH]c4ncnc(N5CCOCC5)c34)c2)n(-c2ccc3ncccc3c2)n1` [Compound 28] yielded a dTm [1] of -2.39 K, a dTm [2] of 1.63 K and a dTm [3] of 14.76 K. The dTm [4] was 15.55 K, the dTm [5] was 2.95 K and the dTm [6] was 7.55 K. For the same compound, the dTm [7] was 16.34 K.

Work on `COc1cc(C(=O)N2CCOCC2)c(F)cc1Nc1nc(N(C)C)c2c(Cl)c[nH]c2n1` [Compound 36] yielded a dTm [1] of -1.75 K, a dTm [2] of -1.69 K and a dTm [3] of -0.66 K. The dTm [4] was 0.43 K, the dTm [5] was -0.34 K and the dTm [6] was 2.35 K. It also gave a dTm [7] of 2.75 K.

— article PMC12136037, “Type II kinase inhibitors that target Parkinson’s disease–associated LRRK2” (Science Advances, 2025)
